In PubChem BioAssay AID248 (DTP/NCI, 2004):
Where “and” joins values, the source holds several entries; their conditions need not be identical. Equal entries are not always repeated. Inconclusive results and toxic doses are left out. No stated cut-off is given here; in the data, active means T/C of 150% or more; inactive means T/C below 125%.

Tested on: L1210 leukemia ip in BDF1 mice, survival T/C
Test: NCI In Vivo Anticancer Drug Screen. Data for tumor model L1210 Leukemia (intraperitoneal) in B6D2F1 (BDF1) mice
Conditions: endpoint: mean survival time, higher = longer survival
Procedure, shortened: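 Value reflects the ratio of survival in compound-treated mice to survival in vehicle-treated controls, with both groups carrying the same transplanted tumor.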

[1] = dose: 100.0 mg/kg/injection, schedule: Q04DX003 (ip), vehicle: Klucel (hydroxypropylcellulose) (HPC)
[2] = dose: 50.0 mg/kg/injection, schedule: Q01DX001 (ip), vehicle: saline
[3] = dose: 100.0 mg/kg/injection, schedule: Q01DX001 (ip), vehicle: saline
[4] = dose: 200.0 mg/kg/injection, schedule: Q01DX001 (ip), vehicle: saline
[5] = dose: 400.0 mg/kg/injection, schedule: Q01DX001 (ip), vehicle: saline
[6] = dose: 100.0 mg/kg/injection, schedule: Q04DX002 (ip), vehicle: saline
[7] = dose: 100.0 mg/kg/injection, schedule: Q01DX001 (ip), vehicle: Klucel (hydroxypropylcellulose) (HPC)
[8] = dose: 200.0 mg/kg/injection, schedule: Q01DX001 (ip), vehicle: Klucel (hydroxypropylcellulose) (HPC)
[9] = dose: 200.0 mg/kg/injection, schedule: Q01DX001 (ip), vehicle: carboxymethylcellulose (CMC)
[10] = dose: 100.0 mg/kg/injection, schedule: Q01DX001 (ip), vehicle: carboxymethylcellulose (CMC)
[11] = dose: 400.0 mg/kg/injection, schedule: Q01DX001 (ip), vehicle: carboxymethylcellulose (CMC)
[12] = dose: 100.0 mg/kg/injection, schedule: Q01DX009 (ip), vehicle: Klucel (hydroxypropylcellulose) (HPC)
[13] = dose: 200.0 mg/kg/injection, schedule: Q01DX009 (ip), vehicle: Klucel (hydroxypropylcellulose) (HPC)
[14] = dose: 400.0 mg/kg/injection, schedule: Q01DX009 (ip), vehicle: Klucel (hydroxypropylcellulose) (HPC)

Measured: T/C

NC(Cc1ccc(Cl)cc1)C(=O)O (stereo not drawn)
inactive: dose: 50.0 mg/kg/injection, schedule: Q01DX001 (ip), vehicle: water 95 % of control | dose: 100.0 mg/kg/injection, schedule: Q01DX001 (ip), vehicle: water 98 % of control | dose: 200.0 mg/kg/injection, schedule: Q01DX001 (ip), vehicle: water 93 % of control | dose: 400.0 mg/kg/injection, schedule: Q01DX001 (ip), vehicle: water 93 % of control | dose: 800.0 mg/kg/injection, schedule: Q01DX001 (ip), vehicle: water 90 % of control | dose: 1200.0 mg/kg/injection, schedule: Q01DX001 (ip), vehicle: water 96 % of control | dose: 1600.0 mg/kg/injection, schedule: Q01DX001 (ip), vehicle: water 96 % of control | dose: 2000.0 mg/kg/injection, schedule: Q01DX001 (ip), vehicle: water 93 % of control

O=C(O)/C=C/c1ccccc1Cl
inactive: dose: 25.0 mg/kg/injection, schedule: Q04DX003 (ip), vehicle: Klucel (hydroxypropylcellulose) (HPC) 94 % of control | dose: 50.0 mg/kg/injection, schedule: Q04DX003 (ip), vehicle: Klucel (hydroxypropylcellulose) (HPC) 103 % of control | [1] 96 % of control

OCC(O)C(O)C(O)C(O)C(c1ccccc1)c1ccccc1 (stereo not drawn)
inactive: [2] 107 % of control | [3] 103 % of control | [4] 101 % of control | [5] 101 % of control

O=C(O)COc1ccc(F)c(Cl)c1
inactive: [6] 105 % of control | dose: 200.0 mg/kg/injection, schedule: Q04DX002 (ip), vehicle: saline 117 % of control | dose: 400.0 mg/kg/injection, schedule: Q04DX002 (ip), vehicle: saline 110 % of control

O=C(Nc1cccc(S(=O)(=O)F)c1)Oc1ccc([N+](=O)[O-])cc1
inactive: dose: 100.0 mg/kg/injection, schedule: Q01DX001 (ip), vehicle: saline with Tween-80 100 % of control | dose: 100.0 mg/kg/injection, schedule: Q01DX009 (ip), vehicle: saline with Tween-80 95 % of control and 100 % of control | dose: 100.0 mg/kg/injection, schedule: Q04DX002 (ip), vehicle: saline with Tween-80 91 % of control | dose: 100.0 mg/kg/injection, schedule: Q04DX003 (ip), vehicle: saline with Tween-80 95 % of control | dose: 200.0 mg/kg/injection, schedule: Q01DX001 (ip), vehicle: saline with Tween-80 100 % of control | dose: 200.0 mg/kg/injection, schedule: Q01DX009 (ip), vehicle: saline with Tween-80 98 % of control and 102 % of control | dose: 200.0 mg/kg/injection, schedule: Q04DX002 (ip), vehicle: saline with Tween-80 91 % of control | dose: 200.0 mg/kg/injection, schedule: Q04DX003 (ip), vehicle: saline with Tween-80 100 % of control | dose: 400.0 mg/kg/injection, schedule: Q01DX001 (ip), vehicle: saline with Tween-80 98 % of control | dose: 400.0 mg/kg/injection, schedule: Q01DX009 (ip), vehicle: saline with Tween-80 88 % of control | dose: 400.0 mg/kg/injection, schedule: Q04DX002 (ip), vehicle: saline with Tween-80 90 % of control

O=C(O)CNCc1ccc2c(c1)OCCO2
inactive: [7] 108 % of control | [8] 92 % of control | dose: 400.0 mg/kg/injection, schedule: Q01DX001 (ip), vehicle: Klucel (hydroxypropylcellulose) (HPC) 95 % of control

CC12CCC(C(=N/O)/C1=N\O)C2(C)C (stereo not drawn)
inactive: dose: 20.0 mg/kg/injection, schedule: Q04DX003 (ip), vehicle: Klucel (hydroxypropylcellulose) (HPC) 106 % of control | dose: 25.0 mg/kg/injection, schedule: Q01DX009 (ip), vehicle: Klucel (hydroxypropylcellulose) (HPC) 107 % of control | dose: 40.0 mg/kg/injection, schedule: Q04DX003 (ip), vehicle: Klucel (hydroxypropylcellulose) (HPC) 103 % of control | dose: 50.0 mg/kg/injection, schedule: Q01DX009 (ip), vehicle: Klucel (hydroxypropylcellulose) (HPC) 107 % of control | dose: 80.0 mg/kg/injection, schedule: Q04DX003 (ip), vehicle: Klucel (hydroxypropylcellulose) (HPC) 105 % of control | [1] 96 % of control

CCN(CC)P(=O)(N1CC1(C)C)N1CC1(C)C (stereo not drawn)
inactive: dose: 88.0 mg/kg/injection, schedule: Q01DX001 (ip), vehicle: carboxymethylcellulose (CMC) 114 % of control | dose: 88.0 mg/kg/injection, schedule: Q01DX001 (ip), vehicle: saline 102 % of control | [3] 118 % of control | dose: 133.0 mg/kg/injection, schedule: Q01DX001 (ip), vehicle: carboxymethylcellulose (CMC) 118 % of control | dose: 133.0 mg/kg/injection, schedule: Q01DX001 (ip), vehicle: saline 107 % of control | [9] 114 % of control | dose: 300.0 mg/kg/injection, schedule: Q01DX001 (ip), vehicle: saline 115 % of control

CCOC(=O)CCCCCC(C)=O
inactive: dose: 100.0 mg/kg/injection, schedule: Q04DX003 (ip), vehicle: acetone 103 % of control | dose: 200.0 mg/kg/injection, schedule: Q04DX003 (ip), vehicle: acetone 100 % of control | dose: 400.0 mg/kg/injection, schedule: Q04DX003 (ip), vehicle: acetone 95 % of control

O=[N+]([O-])c1cncn1CCN1CCOCC1
inactive: [10] 88 % of control | [9] 88 % of control | [11] 94 % of control

O=C(Nc1ccc2ccccc2c1)c1ccc(Cl)c(Cl)c1
inactive: [12] 95 % of control | [13] 103 % of control | [14] 103 % of control

c1ccc(C2=NC(c3ccccc3)N3CC23c2ccccc2)cc1 (stereo not drawn)
inactive: [7] 97 % of control | [8] 94 % of control

O=[N+]([O-])c1cc([As](=O)(O)O)ccc1O
inactive: dose: 6.25 mg/kg/injection, schedule: Q04DX003 (ip), vehicle: saline 100 % of control | dose: 12.5 mg/kg/injection, schedule: Q04DX003 (ip), vehicle: saline 100 % of control | dose: 25.0 mg/kg/injection, schedule: Q04DX003 (ip), vehicle: saline 92 % of control and 100 % of control | dose: 50.0 mg/kg/injection, schedule: Q04DX003 (ip), vehicle: saline 106 % of control | dose: 100.0 mg/kg/injection, schedule: Q04DX003 (ip), vehicle: saline 105 % of control

COc1ccc(CCc2ccc(OC)cc2)cc1
inactive: dose: 25.0 mg/kg/injection, schedule: Q04DX002 (ip), vehicle: saline 106 % of control | dose: 50.0 mg/kg/injection, schedule: Q04DX002 (ip), vehicle: saline 117 % of control | [6] 109 % of control

CSc1ccccc1C(=O)O
inactive: dose: 50.0 mg/kg/injection, schedule: Q01DX001 (ip), vehicle: carboxymethylcellulose (CMC) 100 % of control | [10] 100 % of control | [12] 97 % of control | [1] 103 % of control | [9] 94 % of control | [13] 95 % of control | dose: 200.0 mg/kg/injection, schedule: Q04DX003 (ip), vehicle: Klucel (hydroxypropylcellulose) (HPC) 94 % of control | [11] 96 % of control | [14] 100 % of control | dose: 400.0 mg/kg/injection, schedule: Q04DX003 (ip), vehicle: Klucel (hydroxypropylcellulose) (HPC) 110 % of control

CCOC(=O)c1ccc2c3c(ccc([N+](=O)[O-])c13)CC2
inactive: [2] 98 % of control | [3] 104 % of control | [4] 101 % of control | [5] 98 % of control
